Assay results taken from patent publication US6525001B1, “Substituted pyrimidine and pyridine herbicides” (Mid-American Commercialization Corporation, priority 1997, dated 2003).

Experiments:
Format in all cases: in vivo
wild oat (Avena fatua) = experiment: Test B pre-/postemergence; design: key: 0 is no effect; 10 is complete control
How it was run: (§1)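 Response scores run from 0, meaning no effect, to 10, meaning complete control, assigned by eye relative to controls twelve to sixteen days after spraying. Treatment was both preemergence on planted seed and postemergence on plants at the 1- to 4-leaf stage.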

[1] = system: momingglory (Ipomoea hederacea); experiment: Test B pre-/postemergence; design: key: 0 is no effect; 10 is complete control
How it was run: as §1

[2] = system: broadleaf signalgrass (Brachiaria decumbens); experiment: Test B pre-/postemergence; design: key: 0 is no effect; 10 is complete control
How it was run: as §1

[3] = system: bedstraw (Galium aparine); experiment: Test B pre-/postemergence; design: key: 0 is no effect; 10 is complete control
How it was run: as §1

[4] = system: giant foxtail (Setaria faberii); experiment: Test B pre-/postemergence; design: key: 0 is no effect; 10 is complete control
How it was run: as §1

[5] = system: ladysthumb smartweed (Polygonum persicaria); experiment: Test C; design: key: 0 was no effect; 100 was complete control; conditions: PREEMERGENCE
[6] = system: common ragweed (Ambrosia elatior); experiment: Test C; design: key: 0 was no effect; 100 was complete control; conditions: PREEMERGENCE
[7] = system: surinam grass (Brachiaria decumbens); experiment: Test C; design: key: 0 was no effect; 100 was complete control; conditions: PREEMERGENCE
[8] = system: velvetleaf (Abutilon theophrasti); experiment: Test C; design: key: 0 was no effect; 100 was complete control; conditions: PREEMERGENCE
[9] = system: cocklebur (Xanthium strumarium); experiment: Test C; design: key: 0 was no effect; 100 was complete control; conditions: PREEMERGENCE
[10] = system: cotton (Gossypium hirsutum); experiment: Test C; design: key: 0 was no effect; 100 was complete control; conditions: PREEMERGENCE
[11] = system: giant foxtail (Setaria faberii); experiment: Test C; design: key: 0 was no effect; 100 was complete control; conditions: PREEMERGENCE
corn (Zea mays) = experiment: Test C; design: key: 0 was no effect; 100 was complete control; conditions: PREEMERGENCE
[12] = Rate 250 g/ha, Postemergence (so in the source)
[13] = Preemergence, Rate 62 g/ha, scale of 0 to 10

CCc1cnc(-n2ccc(C(F)(F)F)n2)nc1Cc1cccc(C(F)(F)F)c1 [Compound 46]
50: Plant response rating, Ladysthumb ([5]; Rate 140 g/ha) | Plant response rating, Velvetleaf ([8]; Rate 35 g/ha)
5: Plant response rating, B. signalgrass ([2]; Rate 250 g/ha, Postemergence) | Plant response rating, Surinam grass ([7]; Rate 70 g/ha) | Plant response rating, Cocklebur ([9]; Rate 140 g/ha) | Plant response rating, Cotton ([10]; Rate 70 g/ha) | Plant response rating, Corn (corn (Zea mays); Rate 140 g/ha)
3: Wild oats plant response rating (wild oat (Avena fatua); Rate 62 g/ha, Postemergence) | Plant response rating, B. signalgrass ([2]; Rate 62 g/ha, Postemergence) | Plant response rating, Giant foxtail ([4]; Rate 62 g/ha, Postemergence)
7: Plant response rating, Giant foxtail ([4]; Rate 250 g/ha, Postemergence)
40: Plant response rating, Cotton ([10]; Rate 140 g/ha)
4: Wild oats plant response rating (wild oat (Avena fatua); Rate 125 g/ha, Postemergence) | Plant response rating, Wild oats (wild oat (Avena fatua); Rate 250 g/ha, Postemergence) | Plant response rating, B. signalgrass ([2]; Rate 125 g/ha, Postemergence) | Giant foxtail plant response rating ([4]; Rate 125 g/ha, Postemergence)
6: Wild oats plant response rating (wild oat (Avena fatua); Rate 62 g/ha, Preemergence)
100: Plant response rating, Giant foxtail ([11]; Rate 35 g/ha) | Plant response rating, Giant foxtail ([11]; Rate 70 g/ha) | Plant response rating, Giant foxtail ([11]; Rate 140 g/ha)
9: Plant response rating, Wild oats (wild oat (Avena fatua); [12]) | Plant response rating, Morningglory ([1]; Rate 62 g/ha, Postemergence) | B. signalgrass plant response rating ([2]; Rate 62 g/ha, Preemergence) | B. signalgrass plant response rating ([2]; Rate 125 g/ha, Preemergence) | Plant response rating, B. signalgrass ([2]; Rate 250 g/ha, Postemergence as printed in head r139 (second section for compounds 26-50)) | Plant response rating, Bedstraw ([3]; Rate 125 g/ha, Postemergence) | Bedstraw plant response rating ([3]; Rate 125 g/ha, Preemergence) | Giant foxtail plant response rating ([4]; Rate 62 g/ha, Preemergence) | Giant foxtail plant response rating ([4]; Rate 125 g/ha, Preemergence)
20: Plant response rating, Common ragweed ([6]; Rate 70 g/ha)
0: Plant response rating, Surinam grass ([7]; Rate 35 g/ha) | Plant response rating, Cocklebur ([9]; Rate 35 g/ha) | Plant response rating, Cotton ([10]; Rate 35 g/ha) | Plant response rating, Corn (corn (Zea mays); Rate 35 g/ha) | Plant response rating, Corn (corn (Zea mays); Rate 70 g/ha)
25: Plant response rating, Ladysthumb ([5]; Rate 35 g/ha) | Plant response rating, Surinam grass ([7]; Rate 140 g/ha)
8: Plant response rating, Wild oats (wild oat (Avena fatua); Rate 125 g/ha, Preemergence) | Plant response rating, Bedstraw ([3]; Rate 62 g/ha, Postemergence) | Bedstraw plant response rating ([3]; Rate 62 g/ha, Preemergence)
80: Plant response rating, Common ragweed ([6]; Rate 140 g/ha) | Plant response rating, Velvetleaf ([8]; Rate 70 g/ha) | Plant response rating, Velvetleaf ([8]; Rate 140 g/ha)
10: Morningglory plant response rating ([1]; Rate 62 g/ha, Preemergence) | Morningglory plant response rating ([1]; Rate 125 g/ha, Postemergence) | Morningglory plant response rating ([1]; Rate 125 g/ha, Preemergence) | Plant response rating, Morningglory ([1]; Rate 250 g/ha, Postemergence) | Plant response rating, Morningglory [1, 12] | Plant response rating, Bedstraw ([3]; Rate 250 g/ha, Postemergence) | Plant response rating, Bedstraw [3, 12] | Plant response rating, Giant foxtail [4, 12] | Plant response rating, Ladysthumb ([5]; Rate 70 g/ha) | Plant response rating, Common ragweed ([6]; Rate 35 g/ha) | Plant response rating, Cocklebur ([9]; Rate 70 g/ha)

Cc1cnc(-n2ccc(C(F)(F)F)n2)nc1C(=O)c1cccc(OC(F)(F)F)c1 [Compound 66]
9: Plant response rating, Morningglory ([1]; Rate 250 g/ha, Postemergence) | Plant response rating, Morningglory ([1]; Rate 500 g/ha, Preemergence) | B. signalgrass plant response rating ([2]; Rate 62 g/ha, Preemergence) | Plant response rating, B. signalgrass ([2]; Rate 125 g/ha, Preemergence) | Plant response rating, B. signalgrass ([2]; Rate 250 g/ha, Preemergence)
8: Plant response rating, Bedstraw ([3]; Rate 500 g/ha, Postemergence) | Plant response rating, Bedstraw ([3]; Rate 500 g/ha, Preemergence)
3: Plant response rating, Wild oats (wild oat (Avena fatua); Rate 500 g/ha, Postemergence) | Plant response rating, Morningglory ([1]; Rate 125 g/ha, Preemergence) | Plant response rating, Morningglory ([1]; Rate 250 g/ha, Preemergence) | B. signalgrass plant response rating ([2]; Rate 125 g/ha, Postemergence) | Bedstraw plant response rating ([3]; Rate 125 g/ha, Postemergence) | Plant response rating, Bedstraw ([3]; Rate 250 g/ha, Preemergence)
70: Plant response rating, Ladysthumb ([5]; Rate 140 g/ha)
30: Plant response rating, Common ragweed ([6]; Rate 140 g/ha)
20: Plant response rating, Surinam grass ([7]; Rate 140 g/ha)
10: Plant response rating, Morningglory ([1]; Rate 500 g/ha, Postemergence) | Plant response rating, B. signalgrass ([2]; Rate 500 g/ha, Preemergence)
2: Plant response rating, Wild oats (wild oat (Avena fatua); [13]) | Wild oats plant response rating (wild oat (Avena fatua); Rate 62 g/ha, Postemergence) | Wild oats plant response rating (wild oat (Avena fatua); Rate 125 g/ha, Postemergence) | Plant response rating, Wild oats (wild oat (Avena fatua); Rate 250 g/ha, Postemergence) | Plant response rating, Morningglory [1, 13] | Morningglory plant response rating ([1]; Rate 62 g/ha, Postemergence) | B. signalgrass plant response rating ([2]; Rate 62 g/ha, Postemergence) | Bedstraw plant response rating ([3]; Rate 62 g/ha, Postemergence) | Plant response rating, Bedstraw ([3]; Rate 125 g/ha, Preemergence) | Giant foxtail plant response rating ([4]; Rate 62 g/ha, Postemergence) | Giant foxtail plant response rating ([4]; Rate 125 g/ha, Postemergence) | Plant response rating, Giant foxtail ([4]; Rate 250 g/ha, Postemergence) | Plant response rating, Giant foxtail ([4]; Rate 250 g/ha, Preemergence)
5: Plant response rating, Wild oats (wild oat (Avena fatua); Rate 250 g/ha, Preemergence) | Plant response rating, Wild oats (wild oat (Avena fatua); Rate 500 g/ha, Preemergence) | Plant response rating, B. signalgrass ([2]; Rate 500 g/ha, Postemergence) | Plant response rating, Surinam grass ([7]; Rate 35 g/ha) | Plant response rating, Surinam grass ([7]; Rate 70 g/ha)
1: Plant response rating, Bedstraw [3, 13] | Plant response rating, Giant foxtail ([4]; Rate 125 g/ha, Preemergence)
0: Plant response rating, Giant foxtail [4, 13] | Plant response rating, Ladysthumb ([5]; Rate 35 g/ha) | Plant response rating, Common ragweed ([6]; Rate 35 g/ha) | Plant response rating, Common ragweed ([6]; Rate 70 g/ha) | Plant response rating, Velvetleaf ([8]; Rate 35 g/ha) | Plant response rating, Velvetleaf ([8]; Rate 70 g/ha) | Plant response rating, Velvetleaf ([8]; Rate 140 g/ha) | Plant response rating, Cocklebur ([9]; Rate 35 g/ha) | Plant response rating, Cocklebur ([9]; Rate 70 g/ha) | Plant response rating, Cocklebur ([9]; Rate 140 g/ha) | Plant response rating, Cotton ([10]; Rate 35 g/ha) | Plant response rating, Cotton ([10]; Rate 70 g/ha) | Plant response rating, Cotton ([10]; Rate 140 g/ha) | Plant response rating, Giant foxtail ([11]; Rate 35 g/ha) | Plant response rating, Giant foxtail ([11]; Rate 70 g/ha) | Plant response rating, Giant foxtail ([11]; Rate 140 g/ha) | Plant response rating, Corn (corn (Zea mays); Rate 35 g/ha) | Plant response rating, Corn (corn (Zea mays); Rate 70 g/ha) | Plant response rating, Corn (corn (Zea mays); Rate 140 g/ha)
6: Plant response rating, Bedstraw ([3]; Rate 250 g/ha, Postemergence)
4: Plant response rating, Wild oats (wild oat (Avena fatua); Rate 125 g/ha, Preemergence) | Morningglory plant response rating ([1]; Rate 125 g/ha, Postemergence) | Plant response rating, B. signalgrass ([2]; Rate 250 g/ha, Postemergence) | Plant response rating, Giant foxtail ([4]; Rate 500 g/ha, Postemergence) | Plant response rating, Giant foxtail ([4]; Rate 500 g/ha, Preemergence)
